According to patent US20090082332A1, “PURINE DERIVATIVES FOR THE TREATMENT OF VIRAL OR ALLERGIC DISEASES AND CANCERS” (priority 2005, published 2009):

The compounds below were run against T1, Recombinant human TLR7 (Homo sapiens, UniProt Q9NYK1) (assay: Human TLR7 assay (SEAP reporter in HEK293 cells)). Settings: HEK293 cells expressing human TLR7 and pNiFty2-SEAP reporter; overnight incubation at 37° C., 0.1% (v/v) DMSO.
T1 construct: expressed in transfected cells; host or cells: HEK293 cell line stably expressing the pNiFty2-SEAP reporter plasmid; TLR7 in pUNO vector, blasticidin selection
T1 sequence (Q9NYK1 27-1049): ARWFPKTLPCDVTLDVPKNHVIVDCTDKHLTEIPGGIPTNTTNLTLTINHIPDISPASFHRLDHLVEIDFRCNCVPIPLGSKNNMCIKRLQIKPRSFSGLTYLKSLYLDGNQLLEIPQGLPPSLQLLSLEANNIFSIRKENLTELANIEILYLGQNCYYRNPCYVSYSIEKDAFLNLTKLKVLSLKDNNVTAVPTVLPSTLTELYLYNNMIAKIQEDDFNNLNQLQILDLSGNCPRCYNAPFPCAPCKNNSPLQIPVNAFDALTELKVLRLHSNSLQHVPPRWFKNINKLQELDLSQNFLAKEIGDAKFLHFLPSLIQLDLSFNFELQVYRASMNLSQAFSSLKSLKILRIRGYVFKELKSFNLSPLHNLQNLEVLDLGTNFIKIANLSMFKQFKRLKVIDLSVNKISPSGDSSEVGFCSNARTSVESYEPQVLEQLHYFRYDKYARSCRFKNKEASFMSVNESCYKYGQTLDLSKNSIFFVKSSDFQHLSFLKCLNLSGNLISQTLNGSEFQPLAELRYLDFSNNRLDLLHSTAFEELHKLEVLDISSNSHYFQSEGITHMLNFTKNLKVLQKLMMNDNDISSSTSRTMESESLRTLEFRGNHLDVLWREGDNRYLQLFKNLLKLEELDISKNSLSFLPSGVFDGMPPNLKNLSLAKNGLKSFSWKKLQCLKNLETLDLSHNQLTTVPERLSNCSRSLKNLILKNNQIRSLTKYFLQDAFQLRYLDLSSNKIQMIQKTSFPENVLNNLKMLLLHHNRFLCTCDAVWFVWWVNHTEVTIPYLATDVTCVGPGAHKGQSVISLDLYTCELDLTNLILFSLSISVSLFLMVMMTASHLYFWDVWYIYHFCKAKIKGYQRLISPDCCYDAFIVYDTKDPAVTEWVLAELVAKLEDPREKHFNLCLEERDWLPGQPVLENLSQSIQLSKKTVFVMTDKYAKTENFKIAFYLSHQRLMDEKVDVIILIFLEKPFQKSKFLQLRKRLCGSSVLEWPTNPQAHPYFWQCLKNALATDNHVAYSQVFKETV
Assay type: cell-based
Excerpt: Recombinant human TLR7 was stably expressed in a HEK293 cell line already stably expressing the pNiFty2-SEAP reporter plasmid; integration of the reporter gene was maintained by selection with the antibiotic zeocin. The most common variant sequence of human TLR7 (represented by the EMBL sequence AF240467) was cloned into the mammalian cell expression vector pUNO and transfected into this reporter cell-line. Transfectants with stable expression were selected using the antibiotic blasticidin. In this reporter cell-line, expression of secreted alkaline phosphatase (SEAP) is controlled by an NFkB/ELAM-1 composite promoter comprising five NFkB sites combined with the proximal ELAM-1 promoter. TLR signaling leads to the translocation of NFkB and activation of the promoter results in expression of the SEAP gene. TLR7-specific activation was assessed by determining the level of SEAP produced following overnight incubation of the cells at 37° C. with the standard compound in the presence of 0.1% (v/v) dimethylsulfoxide (DMSO). Concentration dependent induction of SEAP production by compounds was expressed as the log of the minimal effective concentration of compound to induce SEAP release (pMEC).

| Structure (SMILES) | pMEC (log of the minimal effective concentration of compound to induce SEAP release) |
| --- | --- |
| CCCCOc1nc(N)c2[nH]c(=O)n(CCCN(Cc3cccc(CC(=O)OC)c3)C3CCN(CCCC(=O)OC(C)(C)C)CC3)c2n1 [Example 17, tert-Butyl 4-(4-{[3-(6-amino-2-butoxy-8-oxo-7,8-dihydro-9H-purin-9-yl)propyl][3-(2-methoxy-2-oxoethyl)benzyl]amino}piperidin-1-yl)butanoate] | pMEC 9.1 |
| CCCCOc1nc(N)c2[nH]c(=O)n(CCCN(Cc3cccc(CC(=O)OC)c3)C3CCN(CC#N)CC3)c2n1 [Example 14, Methyl [3-({[3-(6-amino-2-butoxy-8-oxo-7,8-dihydro-9H-purin-9-yl)propyl][1-(cyanomethyl)piperidin-4-yl]amino}methyl)phenyl]acetate] | pMEC 7.7 |
| CCCCOc1nc(N)c2[nH]c(=O)n(CCCCN(Cc3cccc(CC(=O)OC)c3)C3CCN(C)CC3)c2n1 [Example 10, Methyl (3-{[[4-(6-amino-2-butoxy-8-oxo-7,8-dihydro-9H-purin-9-yl)butyl] (1-methylpiperidin-4-yl)amino]methyl}phenyl)acetate] | pMEC 8.4 |
